In the NIST ThermoML archive (doi:10.1021/je900597n):

Assay: xn = mol fraction of the nth substance listed
Details: 101 kPa, Liquid; for speed of sound: Pulse-echo method

CCCNCCC [dipropylamine] + COC(C)(C)C
Details	mass density, 288.15 K [kg/m3]	mass density, 293.15 K [kg/m3]	mass density, 298.15 K [kg/m3]	mass density, 303.15 K [kg/m3]	mass density, 308.15 K [kg/m3]	speed of sound, 288.15 K [m/s]	speed of sound, 293.15 K [m/s]	speed of sound, 298.15 K [m/s]	speed of sound, 303.15 K [m/s]	speed of sound, 308.15 K [m/s]
x2 = 0	745.064	740.501	735.924	731.333	726.732	1235.1	1213.4	1191.9	1170.4	1149
x2 = 0.0455	744.529	739.961	735.381	730.779	726.199	1226.5	1204.6	1182.9	1161.5	1140.1
x2 = 0.0993	743.741	739.141	734.529	729.903	725.268	1218.5	1196.6	1174.9	1153.4	1132
x2 = 0.1886	743.725	739.088	734.436	729.765	725.081	1206.8	1184.9	1163	1141.4	1120
x2 = 0.304	744.015	739.319	734.607	729.854	725.082	1191.2	1169.1	1147.2	1125.5	1103.9
x2 = 0.3981	744.373	739.628	734.96	730.165	725.325	1179	1156.8	1134.8	1112.9	1091.2
x2 = 0.4954	744.92	740.107	735.272	730.41	725.531	1164.9	1142.8	1120.8	1099.1	1076.8
x2 = 0.5839	745.36	740.49	735.593	730.664	725.713	1152.3	1130	1107.8	1085.9	1063.8
x2 = 0.7057	745.893	740.912	735.904	730.891	725.831	1131.9	1109.4	1087	1064.9	1042.5
x2 = 0.7685	746.206	741.193	736.153	731.058	725.925	1121.7	1099.1	1076.6	1054.4	1032
x2 = 0.8876	746.684	741.588	736.455	731.289	726.066	1103.9	1080.8	1057.9	1035.3	1012.9
x2 = 0.9337	746.947	741.806	736.641	731.421	726.159	1097	1073.6	1050.7	1028	1005.4
